Source: ChEMBL document CHEMBL3507680, “University of Dundee, Gates Library screen for HepG2 cell viability”

Experiment: Human HepG2 cell viability assay in 384 well format
Format: toxicity, cell-based
Design: dose 125 nL, time 70.5 hour; cytotoxicity at 70.5 h: concentration not given beside the values
Conditions: HepG2 cells, read-out: Inhibition

| SMILES | cytotoxicity at 70.5 h |
| --- | --- |
| Cc1ccc(C(=O)NCCCN(C(C)C)S(C)(=O)=O)c(=O)[nH]1 | -5.61% |
| Cc1ccc(C(=O)NCCCS(=O)(=O)c2ccccc2)c(=O)[nH]1 | -4.85% |
| CN(C)c1ccc(NC(=O)N2CCc3sccc3C2)cn1 | 4.85% |
| O=C(c1cc2c([nH]c1=O)CCC2)N1CCCC1c1cccnc1 (stereo not given) | 14.6% |
| CC(C)n1c(C2CCCN(CC(=O)NC(N)=O)C2)nc2ccccc21 (stereo not given) | -1.95% |
| COCCNC(=O)Nc1cc2c(cc1SC)OCCO2 | -4.52% |
| CCc1nc(CCNC(=O)C2CC2)sc1C | -1.22% |
| c1cc(CCN2CCC(NCc3ccsc3)CC2)ccn1 | 15.8% |
| CSc1cc2c(cc1NC(=O)NCC1CCOC1)OCCO2 (stereo not given) | -1.8% |
| CC(CNC(=O)N1CCNC(=O)CC1)Cc1cccs1 (stereo not given) | 0.139% |
| CSc1ccc(CNC2CCN(CCc3ccncc3)CC2)cc1 | -1.82% |
| Cc1occc1-c1nc(-c2cccc(CN3CCOCC3)c2)no1 | 0.585% |
| CCSC1(CNc2ncc(Br)cn2)CCOCC1 | -5.62% |
| COc1cccc(CNc2cc(C)nc(-c3ccncc3)n2)c1O | -7.57% |
| Cc1cc(-c2nc(-c3cccc(CN4CCOCC4)c3)no2)no1 | 0.395% |
| Cc1c(-c2nc(-c3cccc(CN4CCOCC4)c3)no2)cnn1C | -13.7% |
| CCCc1nc(CNc2cccc(C(=O)N3CCCC(O)C3)c2)no1 (stereo not given) | -4.84% |
| FC(F)(F)c1cccnc1N1CCC(OC2CCOCC2)CC1 | -6.19% |
| O=C(N1CCC(Oc2ccncc2)C1)C1(c2ccc(F)cc2)CC1 (stereo not given) | 5.93% |
| CS(=O)(=O)Cc1nc(CNc2c(F)cc(F)cc2F)cs1 | -2.82% |
| CS(=O)(=O)Cc1nc(CNc2ccc(F)c(F)c2)cs1 | -6.66% |
| Cc1ccc2cc(C(=O)N3CCCCC3c3nc[nH]n3)ccc2n1 (stereo not given) | 11.1% |
| NS(=O)(=O)CC1CCN(c2ncccc2C(F)(F)F)CC1 | 7.95% |
| O=C(N1CCC(Oc2ccncc2)C1)C1(c2ccccc2F)CC1 (stereo not given) | -16.9% |

| SMILES | cytotoxicity at 70.5 h |
| --- | --- |
| CCCc1nn(C2CCN(C3CC3)C2=O)c(=O)o1 (stereo not given) | -5.48% |
| CCCc1nn(C2CCCN(C(C)C)C2=O)c(=O)o1 (stereo not given) | -9.22% |
| Cc1noc(CNc2ccccc2C(=O)N2CCCC(O)C2)n1 (stereo not given) | 5.5% |
| Cc1n[nH]c(C2CN(CCCOc3cccc(Cl)c3)CCO2)n1 (stereo not given) | -14.2% |
| CC(=O)N1CCC(CCNC(C)Cc2ccc(F)cc2)CC1 (stereo not given) | -13.1% |
| CC(CCSc1ccccc1)N1CCN(C(=O)c2cccs2)CC1 (stereo not given) | 35.4% |
| CC(CCSc1ccccc1)N1CCN(C(=O)c2ccccc2O)CC1 (stereo not given) | 36.1% |
| CNC(=O)C1CCN(Cc2cc3c(cc2O)CCC3)CC1 | 27% |
| c1ccn2cc(CN3CCCC(c4ccn[nH]4)C3)nc2c1 (stereo not given) | 25.3% |
| COC(=O)NCC(=O)NC1CC(C)(C)Cc2oc(C)cc21 (stereo not given) | 1.57% |
| CCNC(=O)N(Cc1cccc(OC)c1)C1CCC(O)CC1 (stereo not given) | 2.57% |
| CC(C)(C)c1cc(NC(=O)CN2CCCC2Cn2cncn2)on1 (stereo not given) | 21.1% |
| CCN(C(=O)c1ccc(-c2ccccc2)nc1C)C1CC(=O)NC1=O (stereo not given) | -5.68% |
| CC(C)(C)NS(=O)(=O)c1ccccc1CNCc1cccc(O)c1 | 3.89% |
| CC(C)NS(=O)(=O)c1ccccc1CNCc1cccc(O)c1 | -3.47% |
| O=C(c1ncoc1C1CCCO1)N1CCCC2(CCCCC2)C1 (stereo not given) | -2.37% |
| Cc1n[nH]c(C2CN(C(=O)c3cc(C)sc3C)CCO2)n1 (stereo not given) | -6.3% |
| CCC(NC(=O)Nc1ccc(OC)c(C)c1)c1ccncc1 (stereo not given) | -4.85% |
| O=C(NC1CC1)NC(c1ccc(F)cc1)C1CC1 (stereo not given) | -7.03% |
| O=C(NCCCOC1CCOC1)NC(C1CC1)C1CC1 (stereo not given) | 5.31% |
| CCC(c1ccccc1)N1CCN(C(=O)c2cc(C(N)=O)c[nH]2)CC1 (stereo not given) | -4.98% |
| O=C(Nc1cccn(CC(F)(F)F)c1=O)c1ccc(F)cc1 | 19.4% |
| Cc1ccc(C(C)(O)CNC(=O)c2sccc2Br)o1 (stereo not given) | 4.05% |
| O=C(Nc1nncs1)N(Cc1cccc(O)c1)C1CC1 | -4.79% |

| SMILES | cytotoxicity at 70.5 h |
| --- | --- |
| Cc1cccn2cc(CN3CCCC(O)C3)nc12 (stereo not given) | -2.97% |
| CC(C)OCCN1CCN(C(=O)c2cccc(-n3cccn3)n2)CC1 | -0.664% |
| COCCN(C)c1ccc(NCc2cscn2)nc1 | 24.9% |
| CCn1cc(CNc2ccc(N(C)CCOC)cn2)cn1 | -2.51% |
| CCC1CN(c2cnn(C)c(=O)c2Cl)CCO1 (stereo not given) | 5.82% |
| Cc1ncsc1CCN1CCN(C(=O)c2ccc(=O)[nH]c2)CC1 | -1.09% |
| O=C(NCCn1ccnc1)c1cccc(Br)c1 | -13% |
| O=C(NCCn1ccnc1)c1cc(Br)c[nH]1 | -8.18% |
| O=C(NCCn1ccnc1)c1cc(F)cc(Br)c1 | -8.01% |
| Cc1nc(C2(NCc3ccc(C#N)cc3F)CCCCC2)no1 | -1.37% |
| CNC(=O)c1ccc(=O)n(Cc2csc(N(C)C(C)=O)n2)c1 | -2.61% |
| CC(C)(C)CNS(=O)(=O)C1CS(=O)(=O)c2ccccc21 (stereo not given) | 16.6% |
| O=C(NCCn1ccnc1)c1csc(Br)c1 | 16.5% |
| N#CCCCS(=O)(=O)N1CCC(CSc2ccccc2)C1 (stereo not given) | -9.53% |
| O=C(NC1CCCN(c2ccc(OC(F)F)cc2)C1)c1ccon1 (stereo not given) | -1.24% |
| CSc1ccc(CNc2ccccc2CN2CCC(O)CC2)cc1 | -3.71% |
| O=C(Nc1ccccc1Cn1cncn1)C1CCN(C2CCCCC2)C1 (stereo not given) | -5.06% |
| O=C(NC1CCCN(c2ccc(OC(F)F)cc2)C1)c1cc[nH]n1 (stereo not given) | -11.9% |
| O=S(=O)(CCO)Cc1ccc(OC(F)F)cc1 | -5.07% |
| Cn1cc(C#N)cc1C(=O)NC1(C#N)CCSCC1 | -4.89% |
| CNC(=O)Cc1ccccc1NC(=O)C1CCN(C2CCCCC2)C1 (stereo not given) | -7.23% |
| Cc1cc(C(=O)NC2(C#N)CCSCC2)n(C)n1 | -5.82% |
| CC(C)c1nc2c(n1C)CCN(CC(=O)NCc1ccccn1)C2 | -0.491% |
| COc1cc(OC)cc(C2(O)CCN(Cc3nc(C)c(C)o3)CC2)c1 | 0.268% |

| SMILES | cytotoxicity at 70.5 h |
| --- | --- |
| Cc1ccc(CN(C(=O)NCC(c2cccs2)N(C)C)C2CC2)o1 (stereo not given) | -5.44% |
| COc1ccccc1C(=O)N1CCN(CCc2scnc2C)CC1 | -7.23% |
| Cc1cnc(CNc2ccccc2CN(C)C(=O)c2cccs2)o1 | 18.4% |
| CC1CCN(C(=O)C2CCN(c3ccc(Cl)cc3C#N)CC2)CC1 | -6.44% |
| Cc1ccc(OCc2nc(CNCCn3cccn3)cs2)cc1 | -2.86% |
| CC(C)COCCC(=O)Nc1cccnc1-n1cncn1 | -6.91% |
| COCCNC(=O)N1CCCC(COc2ccccc2)C1 (stereo not given) | 1.11% |
| Cc1ccc2nc(CNc3ccccc3C(=O)NC3CC3)cn2c1 | -4.35% |
| COc1ccc(C(=O)NCCN(C)C)c(I)c1 | 2.46% |
| COc1ccc(C(=O)NCCC(N)=O)c(I)c1 | 24.4% |
| CC(CO)(NC(=O)NCCc1ccc(Br)s1)C1CC1 (stereo not given) | -11% |
| Cc1cc(CNC(=O)NC(C)(CO)C2CC2)c(C)s1 (stereo not given) | -5.03% |
| NC(=O)CN(C(=O)C1Cc2cc(Cl)ccc2O1)C1CCCC1 (stereo not given) | 24.1% |
| Cc1csc(C2(NCc3csc(C4CC4)n3)CCCC2)n1 | -9.17% |
| c1csc(C2(NCc3csc(C4CC4)n3)CCCC2)n1 | -7.26% |
| Cc1noc(C)c1CCC(=O)N1CCn2cccc2C1C (stereo not given) | -0.947% |
| COCCCS(=O)(=O)N(Cc1cccc(C)c1)Cc1ccccn1 | 8.58% |
| CC(C)CCN1CCN(C(=O)c2c[nH]nn2)CC1 | 14% |
| CCN(CC)S(=O)(=O)N(Cc1ccccn1)Cc1ccccc1C | 43.2% |
| CCN(CC1CCOC1)C(=O)c1ccn(-c2ccc(OC)cc2)n1 (stereo not given) | -3.5% |
| COc1ccccc1CN(CC1CCCO1)C(=O)c1scnc1C (stereo not given) | -12.6% |
| Cc1cccnc1NC(=O)NC(CCO)C(C)(C)C (stereo not given) | -2.8% |
| CCN(CC1CCOC1)C(=O)c1cn2ccc(C)cc2n1 (stereo not given) | -16.3% |
| CC(C)(C)c1nc(CNC2CCN(S(C)(=O)=O)CC2)cs1 | -8.36% |

| SMILES | cytotoxicity at 70.5 h |
| --- | --- |
| CCc1nc(CNC2CCN(S(C)(=O)=O)CC2)cs1 | -0.997% |
| CC1CN(C)CCN1C(=O)Nc1nc(-c2ccco2)cs1 (stereo not given) | -13.7% |
| CC1CN(C)CCN1C(=O)Nc1nc(-c2cccn2C)cs1 (stereo not given) | -13.9% |
| Cn1cnnc1CCNC(=O)c1cnn(Cc2ccccc2)c1 | -14.9% |
| CCC1CN(C)c2ccccc2CN1C(=O)Nc1ccc(C)cc1 (stereo not given) | -2.3% |
| COc1ccc(CNc2cccnc2-n2cccn2)cc1OC | -14.2% |
| COc1ccc(C)cc1-n1ccc(C(=O)NCC2CCCOC2)n1 (stereo not given) | -11.7% |
| COc1cc(CN(C)CCc2ccncc2)c(SC)cc1OC | -7.73% |
| COc1cc(CN(C)Cc2ccncc2)c(SC)cc1OC | -10.7% |
| CC(C)CCN1CCN(C(=O)c2cnccn2)CC1 | 18.6% |
| CCN(CC1CCOC1)C(=O)c1ccn(-c2cc(C)ccc2OC)n1 (stereo not given) | -2.72% |
| CN(C)c1ccc(CN(CC2CCCO2)C(=O)c2csnn2)cc1 (stereo not given) | -14.8% |
| CCN(CC)S(=O)(=O)c1ccc(CNc2cc(C)nc(C)n2)cc1 | -12.1% |
| Fc1ccc(OCCNC2CCN(Cc3ccccn3)CC2)c(F)c1 | 20.2% |
| N#Cc1ccc(NCC(O)c2ccco2)c(C(F)(F)F)c1 (stereo not given) | -6.87% |
| CN(CCN1CCOC1=O)CC(=O)Nc1ccc(Cl)c(C(F)(F)F)c1 | -22% |
| COCC(C)NC(=O)CSc1ccc(F)c(Cl)c1 (stereo not given) | 12% |
| Cc1ccc(C(CNCc2cccc3c2OCO3)N2CCOCC2)o1 (stereo not given) | -17% |
| CC(=O)N1CCC(C(=O)NCc2ncc(-c3ccccc3)o2)CC1 | -14.2% |
| O=C(NCc1ncc(-c2ccccc2)o1)NC1CCC(O)CC1 (stereo not given) | -7.39% |
| Clc1snnc1CN1CCN(c2nccs2)CC1 | -13.7% |
| CC(CNC(=O)c1cn(-c2ccccc2)nn1)Cn1cccn1 (stereo not given) | 13.9% |
| Cc1ccc(-n2cc(C(=O)NCC(C)Cn3cccn3)nn2)cc1 (stereo not given) | -14.5% |
| CN(CCC#N)C(=O)Cn1nnnc1C(C)(C)C | -16.8% |
